Data: US20020035061A1, “COMPOSITIONS AND METHODS FOR TREATING INFECTIONS USING CATIONIC PEPTIDES ALONE OR IN COMBINATION WITH ANTIBIOTICS” (priority 1996, published 2002)
Like-named read-outs stand apart in the source and are kept apart here.

Columns and labels:
Format in all cases: cell-based
[1] = tested on: S. maltophilia
[2] = tested on: E. faecalis
[3] = tested on: S. aureus
[4] = tested on: S. epidermidis
[5] = tested on: K. pneumoniae
[6] = tested on: A. calcoaceticus
[7] = tested on: E. coli
[8] = tested on: P. aeruginosa
[9] = tested on: E. faecium
[10] = tested on: S. marcescens
[11] = tested on: E. cloacae
[12] = tested on: bacterial isolates; assay: microbe, parasite or virus in culture; settings: combination with Ciprofloxacin

Sequence	MIC ([1]; S. maltophilia strain SMA002)	MIC ([2]; E. faecalis strain EFS002)	MIC ([4]; S. epidermidis strain SE002)	MIC ([5]; K. pneumoniae strain KP002)	MIC ([6]; A. calcoaceticus strain AC001)	MIC ([8]; P. aeruginosa strain PA003)	MIC ([9]; E. faecium strain EFM003)	MIC ([10]; S. marcescens strain SMS004)	MIC ([11]; E. cloacae strain ECL007)	MIC ([1]; S. maltophilia strain SMA001)	MIC ([5]; K. pneumoniae strain KP001)	MIC ([7]; E. coli strain ECO002)	MIC ([8]; P. aeruginosa strain PA004)	MIC ([10]; S. marcescens strain SMS003)	MIC ([6]; A. calcoaceticus strain AC002)	MIC ([7]; E. coli strain ECO003)	MIC ([9]; E. faecium strain EFM001)	also measured
WWKKWPWWPWRRK [MBI 11C5CN]	16 µg/mL	16 µg/mL	2 µg/mL	16 µg/mL	32 µg/mL	64 µg/mL	2 µg/mL	>128 µg/mL	>128 µg/mL									MIC ([3]; S. aureus strain SA009): 2 µg/mL; MIC ([7]; E. coli strain ECO001): 8 µg/mL
ILKKWPWWPRRK [MBI 11G6CN]		128 µg/mL	8 µg/mL		>128 µg/mL		4 µg/mL		>128 µg/mL	>128 µg/mL	>128 µg/mL	32 µg/mL	>128 µg/mL	>128 µg/mL				MIC ([3]; S. aureus strain SA006): 2 µg/mL
ILKKWPWWPWRRK [MBI 11]																		MIC ([1]; S. maltophilia SMA002): 128 µg/mL; MIC ([2]; E. faecalis EFS002): 64 µg/mL; MIC ([3]; S. aureus SA004): 4 µg/mL; MIC ([5]; K. pneumoniae KP001): 128 µg/mL; MIC ([6]; A. calcoaceticus AC002): 8 µg/mL; MIC ([7]; E. coli ECO002): 64 µg/mL; MIC ([8]; P. aeruginosa PA004): >128 µg/mL; MIC ([9]; E. faecium EFM003): 4 µg/mL; MIC ([10]; S. marcescens SMS004): >128 µg/mL; MIC ([11]; E. cloacae ECL007): >128 µg/mL
ILKWPWWPWRK [MBI 11B5CN]	64 µg/mL	16 µg/mL							>128 µg/mL		16 µg/mL		>128 µg/mL	>128 µg/mL	4 µg/mL			MIC ([2]; E. faecalis strain EFS001): 2 µg/mL; MIC ([2]; E. faecalis strain EFS008): 8 µg/mL; MIC ([3]; S. aureus strain SA005): 2 µg/mL; MIC ([3]; S. aureus strain SA014): 2 µg/mL; MIC ([3]; S. aureus strain SA093): 1 µg/mL; MIC ([4]; S. epidermidis strain SE010): 1 µg/mL; MIC ([7]; E. coli strain ECO005): 16 µg/mL; MIC ([9]; E. faecium strain EFM002): 1 µg/mL
ILKKYPWYPWRRK [MBI 11A5CN]	>128 µg/mL	32 µg/mL			>128 µg/mL	>128 µg/mL	4 µg/mL		>128 µg/mL		>128 µg/mL			>128 µg/mL		128 µg/mL		MIC ([3]; S. aureus strain SA002): 16 µg/mL
ILKWPWWPWRRK [MBI 11B3CN]	32 µg/mL			64 µg/mL	64 µg/mL	>128 µg/mL		>128 µg/mL	>128 µg/mL			16 µg/mL					8 µg/mL	MIC ([2]; E. faecalis strain EFS001): 16 µg/mL; MIC ([3]; S. aureus strain SA010): 4 µg/mL
ILKKIPIIPIRRK [MBI 11A2CN]		>128 µg/mL		>128 µg/mL	>128 µg/mL		16 µg/mL		>128 µg/mL	>128 µg/mL			>128 µg/mL			>128 µg/mL		FIC ([12]; S. aureus SA014): 1.00; FIC ([12]; S. aureus SA093): 0.75; MIC ([3]; S. aureus strain SA004): 8 µg/mL; MIC ([10]; S. marcescens strain SBS003): >128 µg/mL
ILKKWPWW PWKKK [MBI 11B10CN]	128 µg/mL	64 µg/mL					4 µg/mL		>128 µg/mL		32 µg/mL		>128 µg/mL	>128 µg/mL	2 µg/mL			MIC ([2]; E. faecalis strain EFS001): 8 µg/mL; MIC ([2]; E. faecalis strain EFS008): 64 µg/mL; MIC ([3]; S. aureus strain SA008): 2 µg/mL; MIC ([3]; S. aureus strain SA014): 4 µg/mL; MIC ([3]; S. aureus strain SA093): 1 µg/mL; MIC ([4]; S. epidermidis strain SE010): 4 µg/mL; MIC ([7]; E. coli strain ECO005): 16 µg/mL
ILKKWPWWWRRK [MBI 11G5CN]	64 µg/mL	16 µg/mL	2 µg/mL			>128 µg/mL		>128 µg/mL	>128 µg/mL		>128 µg/mL				4 µg/mL	16 µg/mL		MIC ([3]; S. aureus strain SA012): 4 µg/mL; MIC ([9]; E. faecium strain EFM002): 8 µg/mL
ILKKWPWPWRRK [MBI 11A4CN]	>128 µg/mL	64 µg/mL	8 µg/mL					>128 µg/mL	>128 µg/mL		>128 µg/mL		>128 µg/mL		8 µg/mL	32 µg/mL	32 µg/mL	MIC ([3]; S. aureus strain SA005): 2 µg/mL
LKKWPWWPWRRK [MBI 11D1CN]		32 µg/mL		64 µg/mL	>128 µg/mL	>128 µg/mL			>128 µg/mL	64 µg/mL		16 µg/mL		>128 µg/mL			16 µg/mL	MIC ([3]; S. aureus strain SA004): 2 µg/mL; MIC ([4]; S. epidermidis strain SE010): 8 µg/mL
ILKKWPWWVWRRK [MBI 11F2CN]	64 µg/mL	32 µg/mL	4 µg/mL	128 µg/mL				>128 µg/mL				8 µg/mL			4 µg/mL			MIC ([3]; S. aureus strain SA012): 4 µg/mL; MIC ([8]; P. aeruginosa strain PA005): >128 µg/mL; MIC ([9]; E. faecium strain EFM002): 4 µg/mL
ILKKWPWWPWRPMILKKAGS [MBI 11D5CN]		16 µg/mL			>64 µg/mL	>64 µg/mL	1 µg/mL	>64 µg/mL	>64 µg/mL	64 µg/mL	>64 µg/mL					64 µg/mL		MIC ([3]; S. aureus strain SA005): 8 µg/mL
ILKKWPWWPWRRK [MBI 11E1CN]		8 µg/mL		39 µg/mL	32 µg/mL	128 µg/mL			>128 µg/mL	64 µg/mL				>128 µg/mL		8 µg/mL	8 µg/mL	MIC ([3]; S. aureus strain SA006): 1 µg/mL
PWWPWRRK [MBI 11D3CN]		32 µg/mL		>128 µg/mL	>128 µg/mL		8 µg/mL	>128 µg/mL	>128 µg/mL	64 µg/mL		64 µg/mL						MIC ([3]; S. aureus strain SA009): 8 µg/mL; MIC ([8]; P. aeruginosa strain PA024): >128 µg/mL
ILRRWPWWPWRK [MBI 11B2CN]	64 µg/mL			64 µg/mL	64 µg/mL	>128 µg/mL		>128 µg/mL	>128 µg/mL							16 µg/mL	8 µg/mL	MIC ([2]; E. faecalis strain EFS004): 8 µg/mL; MIC ([3]; S. aureus strain SA005): 2 µg/mL
